Measurements as given in patent US20060263444A1, “Antimicrobial composition” (priority 2005, published 2006).
“And” between values parts separate entries of the source, which are not always exact repeats. Equal values may be shown once. Read-outs that look alike come from different tables or passages of the source.

Columns and labels:
E. coli [1] = assay: Viable plate count after 24 hr incubation in trypticase soy broth culture; type: cell-based
Protocol: (§1) Sequential dilutions of the above two stock solutions were then prepared also in sterile saline. A portion of 0.05 ml of each dilution was added to 0.95 ml of bacterial culture (trypticase soy broth containing 10^6 CFU/ml). […] The test cultures were incubated at 37° C. for 24 hr, the total viable bacteria were numerated by plate count on Trypticase® soy agar (BBL) containing inactivating agent. The plates were incubated at 37° C. for 48 hr and reported as colony forming unit/ml (CFU/ml).

S. aureus [2] = type: cell-based
Protocol: as §1

C. albicans [3] = assay: Viable plate count after 24 hr incubation in trypticase soy broth culture; type: cell-based
Protocol: as §1

E. faecium = assay: as above; type: cell-based
Protocol: as §1

P. aeruginosa = assay: as above; type: cell-based
Protocol: as §1

S. aureus [4] = assay: Zone of inhibition assay of coated sutures; type: cell-based, Staphylococcus aureus; details: coated 2-0 polyglactin 910 suture; 0.5% in coating solution; 37° C. 48 hr
Protocol: (§2) The coating solutions were made by dissolving a L(−) lactide/glycolide copolymer containing 65 mole % lactide and 35 mole % glycolide (4.5%) and calcium stearate (4.5%) in ethyl acetate. […] The sutures were hand coated by dipping into the coating solution containing antimicrobial composition and then air dried at room temperature for 8 hr. […] A Petri dish was inoculated with about 10^5 cfu/suture and a portion of 20 ml of TSA tempered at 47° C. was added into the Petri dish. The inoculum was mixed thoroughly with the medium and the suture was placed in the middle of the Petri dish. The inoculated Petri dishes were incubated at 37° C. for 48 hr and then the zone of inhibition was measured with a digital caliper.
(§3) The zone of inhibition assay was performed against S. aureus and E. coli over a two-day period.

E. coli [5] = assay: Zone of inhibition assay of coated sutures; type: cell-based; details: coated suture; 0.5% in coating solution; 37° C. 48 hr
Protocol: as §2, §3

C. albicans [6] = assay: Zone of inhibition assay of coated sutures; type: cell-based; details: coated suture; 0.5% in coating solution; 37° C. 48 hr
[7] = tested on: Staphylococcus aureus, E. coli and C. albicans; assay: Zone of inhibition assay of coated sutures, summary in text; type: cell-based; details: coated suture
Protocol: as §2, §3

[8] = rats; cited from earlier work
[9] = animals and humans; cited from earlier work
[10] = single agent 10 ppm, 37° C. 24 hr

SMILES	CFU/ml E. coli (E. coli [1]; Table 2, single agent 10 ppm)	CFU/ml E. coli (E. coli [1]; Table 2, single agent 20 ppm)	CFU/ml S. aureus (S. aureus [2]; Table 2, single agent 10 ppm)	CFU/ml S. aureus (S. aureus [2]; Table 2, single agent 20 ppm)	reduction of viable bacteria compared to the control, C. albicans (C. albicans [3]; alone at 10 ppm) [log]	CFU/ml C. albicans (C. albicans [3]; [10])	reduction of viable bacteria compared to the control, E. coli (E. coli [1])	CFU/ml E. coli (E. coli [1]; monohydrochloride)	reduction of viable bacteria compared to the control, E. faecium (E. faecium; alone at 10 ppm) [log]	CFU/ml E. faecium (E. faecium; [10])	reduction of viable bacteria compared to the control, P. aeruginosa (P. aeruginosa; alone at 10 ppm)	CFU/ml P. aeruginosa (P. aeruginosa; [10])	CFU/ml S. aureus (S. aureus [2])	Zone of inhibition(mm) S. aureus (S. aureus [4]) [mm]	Zone of inhibition(mm) E. coli (E. coli [5]) [mm]	Zone of inhibition(mm) C. albicans (C. albicans [6]) [mm]	zone of inhibition [7]	absorption and metabolism [8]	toxicological finding [9]
O=[N+]([O-])[O-].[Ag+] [AgNO3, silver nitrate]	1.2 × 10^9 CFU/ml	1.0 × 10^8 CFU/ml	9.3 × 10^8 CFU/ml	2.2 × 10^8 CFU/ml	–	–	–	–	–	–	–	–	–	–	–	–	–	–	–
CCCCCCCCCCCC(=O)N[C@@H](CCCN=C(N)N)C(=O)OCC.Cl [LAE, ethyl ester of the lauramide of the arginine monohydrochloride]	–	–	–	–	< 2	6.0 × 10^7 CFU/ml	no inhibition	1.0 × 10^9 CFU/ml and 1.1 × 10^9 CFU/ml	< 2	5.0 × 10^7 CFU/ml	no inhibition	1.0 × 10^9 CFU/ml	6.4 × 10^8 CFU/ml	0	0	0	no zones of inhibition	fast absorption and metabolism into naturally-occurring amino acids and the lauric acid	completely harmless to animals and humans
